{"source": "paper PMC6925260", "about": "(Nature Communications, 2019)", "key": {"[1]": {"target": "T1, N340A PPARγ LBD / SMRT peptide (Homo sapiens, UniProt P37231, N340A)", "T1 construct": "6× His tag with TEV recognition site (N, cleaved yes); made in house; host or cells: E. coli BL21 (DE3) gold", "T1 sequence (P37231 230-505 N340A)": "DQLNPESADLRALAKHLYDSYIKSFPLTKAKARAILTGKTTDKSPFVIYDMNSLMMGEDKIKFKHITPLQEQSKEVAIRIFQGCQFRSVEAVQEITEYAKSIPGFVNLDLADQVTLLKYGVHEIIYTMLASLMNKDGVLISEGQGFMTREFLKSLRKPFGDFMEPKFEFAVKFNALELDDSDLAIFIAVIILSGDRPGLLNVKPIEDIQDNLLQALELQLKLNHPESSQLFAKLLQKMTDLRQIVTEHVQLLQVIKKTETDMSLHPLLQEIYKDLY", "experiment": "Fluorescence anisotropy, SMRT peptide to N340A PPARγ LBD", "format": "binding", "experimental": "(§1) These samples were then plated as usual."}, "[2]": {"target": "T2, K347A PPARγ LBD / SMRT peptide (Homo sapiens, UniProt P37231, K347A)", "T2 construct": "6× His tag with TEV recognition site (N, cleaved yes); made in house; host or cells: E. coli BL21 (DE3) gold", "T2 sequence (P37231 230-505 K347A)": "T1 sequence (P37231 230-505 N340A) with A111N, K118A", "experiment": "Fluorescence anisotropy, SMRT peptide to K347A PPARγ LBD", "format": "binding", "experimental": "as §1"}, "[3]": {"target": "T3, PPARγ LBD (wt) / MED1 LxxLL peptide (Homo sapiens, UniProt P37231)", "T3 construct": "6× His tag with TEV recognition site (N, cleaved yes); made in house; host or cells: E. coli BL21 (DE3) gold", "T3 sequence (P37231 230-505)": "T1 sequence (P37231 230-505 N340A) with A111N", "experiment": "Fluorescence anisotropy, MED1 peptide to wt PPARγ LBD (alone or ligand bound)", "format": "binding", "experimental": "as §1"}, "[4]": {"tested_on": "PPARγ LBD, deletion of helix 12 / SMRT peptide", "experiment": "Fluorescence anisotropy, SMRT peptide to helix 12 deleted (DH12) PPARγ LBD", "format": "binding", "experimental": "as §1"}, "[5]": {"target": "T4, PPARγ LBD (wt) / NCoR CoRNR box peptide (Homo sapiens, UniProt P37231)", "T4 construct": "6× His tag with TEV recognition site (N, cleaved yes); made in house; host or cells: E. coli BL21 (DE3) gold", "T4 sequence (P37231 230-505)": "T1 sequence (P37231 230-505 N340A) with A111N", "experiment": "Fluorescence anisotropy, NCoR peptide to wt PPARγ LBD (alone or ligand bound)", "format": "binding", "experimental": "as §1"}, "[6]": {"target": "T5, PPARγ LBD (wt) / SMRT CoRNR box peptide (Homo sapiens, UniProt P37231)", "T5 construct": "6× His tag with TEV recognition site (N, cleaved yes); made in house; host or cells: E. coli BL21 (DE3) gold", "T5 sequence (P37231 230-505)": "T1 sequence (P37231 230-505 N340A) with A111N", "experiment": "Fluorescence anisotropy, SMRT peptide to wt PPARγ LBD (alone or ligand bound)", "format": "binding", "experimental": "as §1"}, "K329A PPARg LBD": {"target": "K329A PPARg LBD", "experiment": "Supplementary Figure 11: fluorescence anisotropy dissociation constants, K329A (peptide not given)"}, "wt PPARg LBD": {"target": "wt PPARg LBD", "experiment": "Supplementary Figure 11: fluorescence anisotropy dissociation constants, wt PPARγ LBD (peptide not given)", "format": "binding"}, "[7]": {"target": "T6, N340A PPARγ LBD / NCoR peptide (Homo sapiens, UniProt P37231, N340A)", "T6 construct": "6× His tag with TEV recognition site (N, cleaved yes); made in house; host or cells: E. coli BL21 (DE3) gold", "experiment": "Fluorescence anisotropy, NCoR peptide to N340A PPARγ LBD", "format": "binding", "conditions": "read-out: NCoR dissociation constant average, N340A; Supp. Fig. 11", "experimental": "as §1"}, "K347A PPARg LBD": {"target": "K347A PPARg LBD", "experiment": "Supplementary Figure 11: fluorescence anisotropy dissociation constants, K347A (peptide not given)", "format": "binding"}, "PPARγ": {"tested_on": "PPARγ", "conditions": "Supp. Table 9 summary; comparator apo/vehicle; ref 1,4 (supplement); cited from earlier work"}, "[8]": {"target": "T7, PPARγC313A,Q322C-BTFA LBD / NCoR peptide (Homo sapiens, UniProt P37231, C313A/Q322C)", "T7 construct": "6× His tag with TEV recognition site (N, cleaved yes); made in house; host or cells: E. coli BL21 (DE3) gold", "T7 sequence (P37231 230-505 C313A/Q322C)": "T1 sequence (P37231 230-505 N340A) with C84A, Q93C, A111N", "experiment": "Fluorescence anisotropy, NCoR peptide to PPARγC313A,Q322C-BTFA LBD", "format": "binding", "conditions": "Supp. Table 2", "experimental": "as §1"}, "[9]": {"target": "PPARγ LBD (wt) / CBP peptide (Homo sapiens, UniProt P37231)", "experiment": "Fluorescence anisotropy, CBP peptide to wt PPARγ LBD"}, "[10]": {"conditions": "data set 2 28 18 FP inverse agonism, read-out: dissociation constant"}, "[11]": {"conditions": "data set FP K329A K347A 3 20 18, read-out: dissociation constant"}}, "note": "Numbering of substitutions follows the chain as printed. Read-outs that look alike come from different tables or passages of the source."}
{"smiles": "O=C(Nc1ccccc1)c1cc([N+](=O)[O-])ccc1Cl", "note": "[GW9662]", "values": [{"measurement": "SMRT Kd, wt vs N340A mean difference ± SE", "setting": "[1]; Supp. Fig. 12", "result": "-323 ±631"}, {"measurement": "Kd", "setting": "[1]; Supp. Fig. 12, read-out: SMRT dissociation constant average, N340A", "result": 957, "unit": "nM"}, {"measurement": "Kd", "setting": "[1]; run SMRT FP 4 5 18, read-out: SMRT dissociation constant, N340A", "result": 855, "unit": "nM"}, {"measurement": "Kd", "setting": "[1]; run SMRT FP 4 6 18, read-out: SMRT dissociation constant, N340A", "result": 1200, "unit": "nM"}, {"measurement": "Kd", "setting": "[1]; run SMRT FP 4 10 18, read-out: SMRT dissociation constant, N340A", "result": 811, "unit": "nM"}, {"measurement": "SMRT Kd, wt vs K347A mean difference ± SE", "setting": "[2]; Supp. Fig. 12", "result": "64 ± 631"}, {"measurement": "Kd", "setting": "[2]; Supp. Fig. 12, read-out: SMRT dissociation constant average, K347A", "result": 570, "unit": "nM"}, {"measurement": "Kd", "setting": "[2]; run SMRT FP 4 5 18, read-out: SMRT dissociation constant, K347A", "result": 527, "unit": "nM"}, {"measurement": "Kd", "setting": "[2]; run SMRT FP 4 6 18, read-out: SMRT dissociation constant, K347A", "result": 638, "unit": "nM"}, {"measurement": "Kd", "setting": "[2]; run SMRT FP 4 10 18, read-out: SMRT dissociation constant, K347A", "result": 546, "unit": "nM"}, {"measurement": "effect on coactivator LxxLL box peptide affinity", "setting": "[3]; Supp. Table 9 summary, comparator apo", "result": "no effect"}, {"measurement": "Kd", "setting": "[3]; read-out: MED1 Kd, wt, Supp. Table 2, wt values not from the same experiment as PPARγC313A,Q322C-BTFA (first wt column)", "result": 4220, "unit": "nM"}, {"measurement": "Kd", "setting": "[3]; read-out: MED1 WT Kd, Supp. Table 1, wt PPARγ LBD, FITC peptide 50 nM, fluorescence anisotropy, pH 7.4, 2 h room temperature", "result": 4900, "unit": "nM"}, {"measurement": "SMRT Kd, wt vs DH12 mean difference ± SE", "setting": "[4]; Supp. Fig. 12", "result": "314 ±631"}, {"measurement": "Kd", "setting": "[4]; Supp. Fig. 12, read-out: SMRT dissociation constant average, DH12", "result": 320, "unit": "nM"}, {"measurement": "Kd", "setting": "[4]; run SMRT FP 4 5 18, read-out: SMRT dissociation constant, DH12", "result": 361, "unit": "nM"}, {"measurement": "Kd", "setting": "[4]; run SMRT FP 4 6 18, read-out: SMRT dissociation constant, DH12", "result": 301, "unit": "nM"}, {"measurement": "Kd", "setting": "[4]; run SMRT FP 4 10 18, read-out: SMRT dissociation constant, DH12", "result": 298, "unit": "nM"}, {"measurement": "NCoR Kd mean difference ±SE, Apo vs ligand", "setting": "[5]; Supp. Table 3, wt, one-way ANOVA, Dunnett's, 11 df", "result": "150 ±39"}, {"measurement": "effect on corepressor CoRNR box peptide affinity", "setting": "[5]; Supp. Table 9 summary, NCoR and SMRT, comparator apo", "result": "é"}, {"measurement": "Kd", "setting": "[5]; read-out: NCoR Kd, wt, Supp. Table 2, wt values not from the same experiment as PPARγC313A,Q322C-BTFA (first wt column)", "result": 273, "unit": "nM"}, {"measurement": "Kd", "setting": "[5]; read-out: NCoR Kd, WT, ligand-bound, run 1", "result": 219, "unit": "nM"}, {"measurement": "Kd", "setting": "[5]; read-out: NCoR Kd, WT, ligand-bound, run 2", "result": 157, "unit": "nM"}, {"measurement": "Kd", "setting": "[5]; read-out: NCoR WT Kd, Supp. Table 1, wt PPARγ LBD, FITC peptide 50 nM, fluorescence anisotropy, pH 7.4, 2 h room temperature, average of two technical replicates", "result": 420, "unit": "nM"}, {"measurement": "Kd", "setting": "[5]; read-out: NCoR dissociation constant average, wt, Supp. Fig. 11", "result": 255, "unit": "nM"}, {"measurement": "effect on affinity/recruitment of NCoR CoRNR peptide", "setting": "[5]; versus apo", "result": "increase affinity"}, {"measurement": "Kd", "setting": "[6]; Supp. Fig. 12, read-out: SMRT dissociation constant average, wt", "result": 634, "unit": "nM"}, {"measurement": "SMRT Kd mean difference ±SE, Apo vs ligand", "setting": "[6]; Supp. Table 4, wt, 9 df", "result": "923 ±178"}, {"measurement": "Kd", "setting": "[6]; run SMRT FP 4 5 18, read-out: SMRT dissociation constant, WT", "result": 445, "unit": "nM"}, {"measurement": "Kd", "setting": "[6]; run SMRT FP 4 6 18, read-out: SMRT dissociation constant, WT", "result": 482, "unit": "nM"}, {"measurement": "Kd", "setting": "[6]; run SMRT FP 4 10 18, read-out: SMRT dissociation constant, WT", "result": 976, "unit": "nM"}, {"measurement": "effect on affinity/recruitment of SMRT CoRNR peptide", "setting": "[6]; versus apo", "result": "increase affinity"}, {"measurement": "Kd mutant/Kd wt", "setting": "K329A PPARg LBD; ratio of averages", "result": 7.158}, {"measurement": "Kd", "setting": "K329A PPARg LBD; read-out: dissociation constant, Average K329A values, average of the listed data sets", "result": 1820, "unit": "nM"}, {"measurement": "Kd", "setting": "K329A PPARg LBD; read-out: dissociation constant, data set FP 3 15 18 Inverse agonism part 2", "result": 1800, "unit": "nM"}, {"measurement": "Kd", "setting": "K329A PPARg LBD; read-out: dissociation constant, data set FP K329A K347A 3 20 18", "result": 1850, "unit": "nM"}, {"measurement": "Kd", "setting": "wt PPARg LBD; average of the listed data sets, read-out: dissociation constant, Average wt values", "result": 255, "unit": "nM"}, {"measurement": "Kd", "setting": "wt PPARg LBD; [10]", "result": 242, "unit": "nM"}, {"measurement": "Kd", "setting": "wt PPARg LBD; data set FP 3 15 18 Inverse agonism part 2, read-out: dissociation constant", "result": 269, "unit": "nM"}, {"measurement": "Kd", "setting": "wt PPARg LBD; [11]", "result": 254, "unit": "nM"}, {"measurement": "Kd", "setting": "[7]", "result": 485, "unit": "nM"}, {"measurement": "Kd", "setting": "K347A PPARg LBD; [10]", "result": 692, "unit": "nM"}, {"measurement": "Kd", "setting": "K347A PPARg LBD; [11]", "result": 488, "unit": "nM"}, {"measurement": "effect on reporter expression in cells", "setting": "PPARγ", "result": "no effect"}, {"measurement": "NCoR fold change (labeled/wt), PPARγC313A,Q322C-BTFA", "setting": "[8]", "result": 1.3}, {"measurement": "Kd", "setting": "[8]; read-out: NCoR Kd, PPARγC313A,Q322C-BTFA, covalent ligands T0070907, GW9662 expected to be apo-like", "result": 348, "unit": "nM"}, {"measurement": "Kd", "setting": "[9]; read-out: CBP Kd, ligand-bound, run 1", "result": 4700, "unit": "nM"}, {"measurement": "Kd", "setting": "[9]; read-out: CBP Kd, ligand-bound, run 2", "result": 3350, "unit": "nM"}]}
